# Experimental data as given in US20240245677A1, “SELECTED COMPOUNDS FOR TARGETED DEGRADATION OF BRD9” (C4 THERAPEUTICS, INC., priority 2021, published 2024).
# Key:
# in vitro = conditions: plasma; for % Bound / % Remaining at 3 hours: 3 h, 2 µM
# Procedure: Plasma protein binding (PPB) of Compound 1 was evaluated in plasma from mice, rats, dogs, cynomolgus monkeys, and humans using ultracentrifugation.
# Frozen plasma from CD-1 mice, Sprague-Dawley rats, beagle dogs, cynomolgus monkeys, and humans was purchased and stored at ≤−30° C. On the day of study, plasma samples of CD-1 mice, Sprague-Dawley rats, beagle dogs, cynomolgus monkeys and humans were thawed under running cold tap water and centrifuged to remove any particulates.
# For the internal standard, telmisartan, a 1 mg/mL solution was prepared by dissolving 1.4 mg of telmisartan in 1.4 mL of DMSO, and stored at 4° C.
# The 10 mM stock solution of each test compound was used to prepare 400 μM intermediate stocks in methanol. Then, a 2 μM working stock of each test compound was prepared for plasma from each species (mouse, rat, dog, monkey, and human) by spiking 12 μL of the 400 μM intermediate stock for each test compound into 2400 μL of thawed and prepared plasma from a test species.
# 400 μL of blank plasma for each species was transferred to a 0.5 mL Beckman tube (Part No. 343776, Beckman Coulter Life Sciences, Indianapolis, IN, USA) and centrifuged for 3 hours at 627000×g at 37° C. The supernatant was removed and kept at room temperature.
# To prepare for ultracentrifugation, the rotor of the centrifuge was placed into an incubator and warmed up to 37° C. before centrifugation. The vacuum switch of the OPTIMA™ MAX-TL Ultracentrifuge (Beckman Coulter Life Sciences, Indianapolis, IN, USA) was turned on and the vacuum was reduced to less than 10 microns to warm up the system. The ultracentrifuge's parameters were set to the following: Temperature—37° C.; Time—3 hours; and Speed—627000×g. For each species and each test compound, 2.4 mL of working stock was mixed and pre-incubated for 45 minutes at 37° C. Then, 60 μL was separated and precipitated with 200 μL of acetonitrile containing internal standard and labeled as (TO), and 0.4 mL (triplicates) were transferred to Beckman 2 mL tubes (Part No. 344625, Beckman Coulter Life Sciences, Indiana, IN, USA).
# For each species and each test compound, the triplicate 0.4 mL sample tubes were centrifuged for 3 hours at 627000×g at 37° C. […] At 45 minutes, 60 μL was separated, precipitated with 200 μL of acetonitrile containing internal standard and labelled as (T45). After completion of 3 hours, 60 μL of incubated samples were separated, precipitated with acetonitrile containing internal standard, and labeled as (T3).
# After completing the 3 hours of centrifugation, 30 μl of the top fraction of supernatant from each sample tube was removed (free fraction) and precipitated with acetonitrile containing internal standard (labeled as top sample).
# After removing 30 μL of the top fraction, remaining top and bottom layer were mixed thoroughly to make a uniform mixture. From this mixture, 30 μL of bottom sample was collected and precipitated with acetonitrile containing internal standard (labelled as bottom sample).
# Matrix matching was done for crashed stability samples (TO, T45 and T3 samples) by adding 30 μL of a 50:50 mixture of blank plasma supernatant and phosphate-buffered saline (PBS), and for top and bottom samples, by adding 30 μL of blank plasma (kept at room temperature).
# All the stability samples and centrifuged samples were vortexed at 1000 rpm for 5 minutes and centrifuged at 4000 rpm for 10 minutes. Supernatant from each sample was separated, diluted 2-fold with water, and analyzed in LC-MS/MS.
# Samples (supernatant-free fraction and total plasma) were analyzed by LCMS-MS (no standards).
# [1] = test system: HSSYII synovial sarcoma cell line; assay: Global proteomics in HSSYII cells; format: cell-based, human; conditions: 100 nM, 4 hours
# Procedure: Global protein expression was performed in Yamato-SS and HSSYII synovial sarcoma cell lines after 4-hour treatment with Compound 1 (100 nM). The Yamato-SS cell line was provided by the RIKEN BRC through the National BioResource Project of the MEXT/AMED, Japan (cat #RCB3577), and the HS-SY-II cell line was provided by the RIKEN BRC through the National BioResource Project of the MEXT/AMED, Japan (cat #RCB2231).
# Both Yamato-SS and HSSYII cell lines were treated with Compound 1 at 100 nM for 4 hours and analyzed by multiplexed quantitative proteomics. The x-axis illustrates the totality of the proteomics data and is labeled as fold change (FC) of Compound 1 vs vehicle in a Log 2 transformation scale. The statistical significance (T-test of treated vs. DMSO with Benjamini-Hochberg correction applied) of the observed changes is shown in the y-axis as negative Log 10 of the P-value. The horizontal dashed line marks the statistical significance (P-value ≤0.001) and the vertical line marks fold change ≥2.
smiles,measurement,setting,value
"COc1cc(-c2cn(C)c(=O)c(C)c2C)cc(OC)c1CN1CC[C@H](N2CCN(c3ccc(N[C@H]4CCC(=O)NC4=O)cc3F)CC2)C(F)(F)C1 [Compound 1, (S)-3-((4-(4-((S)-1-(2,6-dimethoxy-4-(1,4,5-trimethyl-6-oxo-1,6-dihydropyridin-3-yl)benzyl)-3,3-difluoropiperidin-4-yl)piperazin-1-yl)-3-fluorophenyl)amino)-piperidine-2,6-dione]","fraction unbound at 3 h, 2 µM","in vitro; CD-1, mouse",0.0339
same,% Bound,"in vitro; CD-1, mouse",96.61%
same,% Remaining at 3 hours,"in vitro; CD-1, mouse",84.69%
same,"fraction unbound at 3 h, 2 µM","in vitro; Sprague-Dawley, rat",0.0971
same,% Bound,"in vitro; Sprague-Dawley, rat",90.29%
same,% Remaining at 3 hours,"in vitro; Sprague-Dawley, rat",88.73%
same,"fraction unbound at 3 h, 2 µM","in vitro; beagle, dog",0.0646
same,% Bound,"in vitro; beagle, dog",93.54%
same,% Remaining at 3 hours,"in vitro; beagle, dog",99.38%
same,"fraction unbound at 3 h, 2 µM",in vitro; human,0.067
same,% Remaining at 3 hours,in vitro; human,66.87%
same,"fraction unbound at 3 h, 2 µM",in vitro; monkey,0.0514
same,% Bound,in vitro; monkey,94.86%
same,% Remaining at 3 hours,in vitro; monkey,99.14%
same,BRD9 protein level decrease vs DMSO control,[1],66.7%
same,Emax at 0.1 µM,"[1]; Homo sapiens, read-out: BRD9 Emax",33.3%
